Assays:
HeLa cells [1] = assay: Luciferase activity in HeLa cells transfected with mRNA-lipoplexes in the presence of bioactive lipids (FIGS. 9A-9C, 9F); format: cell-based
Experimental: FIG. 9A is a graph illustrating luciferase activity in HeLa cells transfected with mRNA-lipoplexes at a dose of 50 ng mRNA in the presence of bioactive lipids (black) normalized to mRNA-lipoplex only control (red), which was set at 100%. Data represented as mean±SEM; n=3. […] FIG. 9B is a graph illustrating luciferase activity in HeLa cells transfected with mRNA-lipoplexes at a dose of 50 ng mRNA in the presence of varying concentrations of MK-571 (blue) relative to mRNA-lipoplex only control (red). Data represented as mean±SD; n=3. […] FIG. 9C is a graph illustrating luciferase activity in HeLa cells transfected with mRNA-lipoplexes at a dose of 50 ng mRNA in the presence of varying concentrations of Arachidonic Acid (blue) relative to mRNA-lipoplex only control (red). Data represented as mean±SD; n=3. […] FIG. 9F is a graph illustrating luciferase activity in HeLa cells transfected with mRNA-lipoplexes at a dose of 50 ng mRNA in the presence of varying concentrations of MK-571 or its analogues, Montelukast, Pranlukast, and Zafirlukast relative to mRNA-lipoplex only control. Data represented as mean±SD; n=3.

HeLa cells [2] = assay: Luciferase activity in HeLa cells transfected using LNPs with MK-571 (FIGS. 9D, 9E); format: cell-based; conditions: 24 hr pre-incubation with MK-571 (5 μM), increasing doses of mRNA
Experimental: FIG. 9D is a graph illustrating luciferase activity at increasing doses of mRNA in HeLa cells transfected using LNPs, with and without 24 hr pre-incubation with MK-571 (5 μM). Data represented as mean±SD; n=3.
FIG. 9E is a graph illustrating luciferase activity at increasing doses of mRNA in HeLa cells transfected using LNPs and MK-571 loaded LNPs. Data represented as mean±SD; n=3.

Row | SMILES | luciferase activity (protein expression) relative to mRNA-lipoplex only control (HeLa cells [1]; 50 ng mRNA, varying concentrations) | protein expression relative to mRNA-lipoplex only control (HeLa cells [1]; 50 ng mRNA, concentration of 5 μM) | enhancement of protein expression over the control (HeLa cells [1]; mRNA-lipoplexes 50 ng mRNA, lipoplex only control set at 100%) | transfection (luciferase activity) using LNPs (HeLa cells [2])
1 | CCCCC/C=C\C/C=C\C/C=C\C/C=C\CCCC(=O)O [Arachidonic Acid] | failed to elicit improvement in protein expression |  |  | 
2 | CN(C)C(=O)CCSC(SCCC(=O)O)c1cccc(/C=C/c2ccc3ccc(Cl)cc3n2)c1 (stereo not shown) [MK-571] |  | doubling the protein expression | approximately 40% | able to enhance transfection at all doses of mRNA

— US11969506B2, “Lipid nanoparticle formulation” (ModernaTX, Inc., priority 2017, dated 2024)
